Measured values reported in patent US20210147932A1, “FLUORESCENT PROBES FOR QUANTIFICATION OF DNA DAMAGE AND REPAIR” (The Board of Trustees of the Leland Stanford Junior …, priority 2019, published 2021).
Values joined by “and” are separate entries in the source; they are usually repeats but may differ in a detail not shown here. Identical values can stand only once.

How the values were obtained:
Format in all cases: biochemical
AP-DNA [1] = test: Oxime formation kinetics of probe with AP-DNA
Method: FIG. 3 provides representative plots for calculations of k2 for Compound (1) (CCVJ1) under various buffer conditions with oligo 15. Plots were fitted in OriginPro 8.5 according to the equation derived by Larsen et. al.^5 for second-order rate constants of oxime formation. Apparent second-order rate constants were calculated as the average of three replicates.
FIG. 5A provides fluorescence real-times responses for oxime formation under varied conditions. The Time course of oxime formation between Compound (1) (CCVJ1) (5 μM) and AP-DNA (20 μM) under varied buffer conditions (50 mM) is shown. Ionic strength adjusted to 150 mM with NaCl
Next the reaction rates with CCVJ1 were evaluated. To measure oxime formation kinetics, 5 μM CCVJ1 was reacted with 20 μM AP DNA, and the resulting fluorescence time course was used to determine second-order rate constants by nonlinear regression analysis. Tris buffer was selected since it is commonly used in glycosylase assays with a salt concentration of 100 mM NaCl.
In addition to Tris buffer, oxime formation kinetics were also measured for CCVJ1 with AP DNA in a solution of a catalytic amine buffer previously shown to accelerate oxime formation. To this end, it was employed 50 mM N,N-dimethylethylenediamine (DEDA)•HCl buffered to a pH of 7.0 in place of the above Tris buffers. […] Such rapid rates of oxime formation at neutral pH are unprecedented for unactivated aldehydes.
(§1) In addition to the 5′ and 3′ neighboring bases, studies were done of the effect of the orphaned base Z paired opposite the abasic site on the UBER probe system (FIG. 10, panels C-D). Using the sequence where X=C and Y=G, the identity was varied of the base Z opposite the AP site. […] As a result, the smaller pyrimidine bases yielded a greater fluorescence light up response than the larger purine bases. It was also observed a strong effect by the opposing base on the rate of oxime formation (FIG. 10, panel D). […] This trend is in contrast to the neighboring base effect discussed above in which stronger stacking bases accelerated the rate of oxime formation.
(§2) General procedure for creating AP site DNA: A deoxyuridine containing oligonucleotide (typically 5-20 μM) was treated with 10 U/mL E. coli UDG (New England Biolabs) for 10 minutes at 37° C. in buffer to create AP site containing DNA (see below for MALDI-TOF confirmation). The hairpin was then reacted with probe from a DMSO stock solution (final DMSO concentration <5%).
Fluorescence time courses: Unless otherwise stated, fluorescence time courses were collected on a Fluoroskan Ascent Microplate Fluorometer (Thermo Fisher Scientific) with black, non-binding 384 well plates (Greiner) at a reaction volume of 60 μL with 50 mM Tris buffer pH 7 (ionic strength adjusted to 100 mM with NaCl) with a fluorescein filter set (Ex. 485, Em. 538).

AP site-containing DNA = test: Competition for oxime formation between CCVJ1 and AP site-containing DNA
Method: FIG. 6 provides effect of adding exemplary linker NH2CH2CH2ONH2 to the reaction of Compound (1) (CCVJ1) (5 μM) with AP site containing DNA (20 μM) in buffer.
FIG. 9 provides interaction between Compound (1) (CCVJ1) and DNA. […] (Ex. 485, Em. 538).
FIG. 14 provides effect of competing aldehydes/ketones on maximum fluorescence signal.
Additional experiments were performed to study the origins of this unusually rapid reaction. […] To test the effect that proximity between the alkoxyamine and planar portion of the probe had on oxime kinetics in our probes, probes were synthesized having variable-length linkers (CCVJ2 and CCVJ3) from aldehyde reactive linkers L2 and L3 respectively (FIG. 2A). […] To test the importance of a double-stranded DNA structure to the rate and fluorescence response, an AP-containing single-stranded DNA oligonucleotide was reacted with CCVJ1. At pH 7, CCVJ1 reacted with a second-order rate constant of 33 M^−1s^−1 with the single-stranded substrate, roughly 5-fold slower than a double-stranded hairpin with identical sequence context (FIG. 8).
To further explore the hypothesis that the oxime rate acceleration in these AP-site DNAs was related to base stacking interactions, the fluorescence was measured of CCVJ1 in the presence and absence of a non-lesion containing DNA hairpin.
Since the probe design involves conformational restriction to induce a light-up signal, it was hypothesized that off-target oxime formation with small molecules might induce a relatively small signal relative to DNA, thus providing a measure of selectivity in signaling. […] Another potential aspect is that ketones or aldehydes in the environment might compete with the DNA AP site to react with the aminooxy group, thereby consuming the free probe and reducing the maximum signal. Initial testing of the reactivity of CCVJ1 with AP site-containing DNA in the presence of increasing amounts of competing 2-deoxyribose, the closest small-molecule analogue to the DNA AP site. […] This was repeated this experiment with pyruvic acid, a highly reactive ketone and a common cellular metabolite.

AP-DNA [2] = test: Oxime formation kinetics of probe with AP-DNA; conditions: Tris buffer, probe concentration 10-100 μM
[3] = system: DNA AP site (AP site containing DNA, oligo 15); test: Fluorescence response of probe covalently attached to the AP site of a DNA hairpin
Method: FIG. 2B provides emission spectra of oligonucleotide-probe conjugates compared to the emission spectra of the free probe at 2 μM concentration in 50 mM Tris buffer pH 7.0. Excitation was at 470 nm for Compound (1) (also referred to herein as CCVJ1) and 450 nm for Compounds 8 and 9 (also referred to herein as NP1 and NP2) and Compounds 4 and 6 (also referred to herein as BD1 and BD2).
To assess the potential fluorescence response of each probe, a 17mer DNA hairpin containing a single AP site was prepared and reacted it with a 10-fold excess of probe overnight. The subsequent DNA-probe conjugates were precipitated to remove excess fluorophore and full DNA labelling was confirmed by MALDI-TOF mass spectrometry (Table 1). The reacted DNAs were re-suspended in buffer to a concentration of 2 μM and the emission spectra compared with the spectra of the free probes in solution. […] In addition to its large fluorescence response, CCVJ1 is accessed readily through a facile 4-step synthesis and has good spectral overlap with fluorescein. This makes the probe accessible to a wide range of researchers and well suited to the majority of fluorescence-based instruments.
as §1, §2
Procedure for assessing fluorescence response of probes: To assess the fluorescence response of the probes, 25 μM AP site containing DNA (oligo 15) was prepared in a 20 μL solution and allowed to react with 500 μM of each probe overnight. The DNA was then precipitated by the addition of 80 μL 0.33 M sodium acetate and 300 μL ethanol and centrifuged at 21,100 g for 1 hr at 4° C. The resulting DNA pellet was washed twice with 70% EtOH and re-suspended in buffer to a concentration of 2 μM. A portion of the DNA pellet was used for MALDI-TOF analysis. The emission spectra of the probe-oligonucleotide conjugate was measured and compared against a 2 μM solution of the free probe

N#C/C(=C\c1cc2c3c(c1)CCCN3CCC2)C(=O)NCCON [CCVJ1]
rate of oxime formation with optimal neighboring bases (AP-DNA [1]; AP hairpin X=C, Y=G, Z=C): 320 ± 13 M⁻¹ s⁻¹
Apparent second-order rate constant of oxime formation k2 (AP-DNA [1]; DEDA pH 7 (50 mM N,N-dimethylethylenediamine HCl)): 440 M⁻¹ s⁻¹ and 440 ± 12 M⁻¹ s⁻¹
Apparent second-order rate constant of oxime formation k2 (AP-DNA [1]; Tris pH 7, 5 μM CCVJ1, 20 μM AP DNA): 147 M⁻¹ s⁻¹ and 147 ± 8 M⁻¹ s⁻¹
Apparent second-order rate constant of oxime formation k2 (AP-DNA [1]; Tris pH 7.5): 51 ± 2 M⁻¹ s⁻¹
Apparent second-order rate constant of oxime formation k2 (AP-DNA [1]; Tris pH 8): 29 ± 1 M⁻¹ s⁻¹
rate in DEDA buffer, times faster than in Tris (AP-DNA [1]; pH 7.0): ~3 times
rate, times faster than typical oxime formation in neutral aqueous buffer (AP-DNA [1]; pH 7.0): 10^3-10^4 times
effect of equimolar pseudo AP DNA on rate of apparent oxime formation (AP site-containing DNA; 20 μM pseudo AP hairpin, 20 μM AP DNA, 5 μM CCVJ1): no effect on the rate of apparent oxime formation
effect of competing 2-deoxyribose on maximum signal (AP site-containing DNA; 1 mM deoxyribose (200 equivalents)): no effect on the maximum signal
signal retained compared to the AP DNA alone (AP site-containing DNA; 4 mM deoxyribose (800 equivalents)): 85%
effect of competing pyruvate on overall signal (AP site-containing DNA; up to 200 μM pyruvate (40 equivalents)): no significant reduction in overall signal
lag time tss of UBER probe coupled assay (AP-DNA [2]): 5 to 50 min
increase in fluorescence when bound to the AP site vs free probe ([3]; 17mer hairpin conjugate 2 μM vs free probe): 256 fold
overall increase in fluorescence relative to the probe alone, optimal neighboring bases ([3]; AP hairpin X=C, Y=G, Z=C): 508 fold
fluorescence light up response (summary) ([3]; relative to the unbound probe): 250-500 fold
